Laboratory results: patent US20110039787A1, “COMPOSITIONS, KITS AND METHODS FOR TREATING BENIGN PROSTATE HYPERPLASIA” (priority 2009, published 2011)
Square brackets hold non-standard residues; d marks the D form. Peptide text beside a SMILES is read from it. * marks the point of attachment. dPhe(4-NHCONH2) = NC(=O)Nc1ccc(C[C@@H](N)C(=O)O)cc1; Dihydroorotyl(S) = O=C1C[C@@H](C(=O)*)NC(=O)N1; dPhe(4-Cl) = N[C@H](Cc1ccc(Cl)cc1)C(=O)O; Phe(4-NH2) = Nc1ccc(C[C@H](N)C(=O)O)cc1; d2Nal = N[C@H](Cc1ccc2ccccc2c1)C(=O)O; Lys(iPr) = CC(C)NCCCC[C@H](N)C(=O)O; d3Pal = N[C@H](Cc1cccnc1)C(=O)O

System: testosterone
Test: Serum testosterone concentration-time profile (LC-MS/MS)
Format: in vivo, men
Settings: for Number of patients with testosterone below the castration level 0.5 ng/mL at one or more time-points / Percentage of patients with testosterone below the castration level 0.5 ng/mL at one or more time-points: up to Day 42; for Mean time to second return of testosterone to baseline interval (after the second administration): calculated, not measured values
[1] = 16+16 mg, after the first administration
[2] = 16+16 mg, after the second administration
[3] = 32+32 mg, after the first administration
[4] = 32+32 mg, after the second administration
[5] = first dose of the 32+32 mg combined with the single dose 32 mg data

CC(=O)N[C@H](Cc1ccc2ccccc2c1)C(=O)N[C@H](Cc1ccc(Cl)cc1)C(=O)N[C@H](Cc1cccnc1)C(=O)N[C@@H](CO)C(=O)N[C@@H](Cc1ccc(NC(=O)[C@@H]2CC(=O)NC(=O)N2)cc1)C(=O)N[C@H](Cc1ccc(NC(N)=O)cc1)C(=O)N[C@@H](CC(C)C)C(=O)N[C@@H](CCCCNC(C)C)C(=O)N1CCC[C@H]1C(=O)N[C@H](C)C(N)=O [Degarelix, D-Alaninamide, N-acetyl-3-(2-naphthalenyl)-D-alanyl-4-chloro-D-phenylalanyl-3-(3-pyridinyl)-D-alanyl-L-seryl-4-[[[(4S)-hexahydro-2,6-dioxo-4-pyrimidinyl]carbonyl]amino]-L-phenylalanyl-4-[(aminocarbonyl)amino]-D-phenylalanyl-L leucyl-N6-(1-methylethyl)-L-lysyl-L-prolyl] (Ac-[d2Nal][dPhe(4-Cl)][d3Pal]S[Phe(4-NH2)](Dihydroorotyl(S))[dPhe(4-NHCONH2)]L[Lys(iPr)]P[dA]-NH2)
Mean time-point (tnadir) to Cnadir of testosterone (32 mg): 1.3 days | Lowest mean testosterone level (32 mg, Day 1, SD 0.5): 0.9 ng/mL | Mean testosterone level on Day 42 (32 mg, Day 42 (5.2 at baseline)): 5.3 ng/mL | Mean time for first return of testosterone to baseline interval after the first administration (32 mg, SD=5.2): 9.1 days | Mean area of testosterone concentrations below 0.5 ng/mL (32 mg, range 0.0-0.1): 0.0 ng·days/mL | Number of patients with testosterone below the castration level 0.5 ng/mL at one or more time-points (32 mg): 3 patients | Percentage of patients with testosterone below the castration level 0.5 ng/mL at one or more time-points (32 mg): 25% | Greatest change from baseline in mean testosterone (64 mg): -4.7 ng/mL | Mean minimal value of testosterone (Cnadir) (64 mg): 0.4 ng/mL | Mean time-point (tnadir) to Cnadir of testosterone (64 mg): 8.8 days | Lowest mean testosterone level (64 mg, Day 1, SD 0.2): 0.4 ng/mL | Mean testosterone level on Day 42 (64 mg, Day 42 (5.2 at baseline)): 3.0 ng/mL | Patients still below testosterone 0.5 ng/mL on Day 42 (64 mg, Day 42, of the 8 patients suppressed): Five | Mean area of testosterone concentrations below 0.5 ng/mL (64 mg, range 0.0-15.2): 4.4 ng·days/mL | Number of patients with testosterone below the castration level 0.5 ng/mL at one or more time-points (64 mg): 9 patients | Percentage of patients with testosterone below the castration level 0.5 ng/mL at one or more time-points (64 mg): 69% | Greatest change from baseline in mean testosterone (16+16 mg): -4.0 ng/mL | Lowest mean testosterone level (16+16 mg, Day 1, SD 0.5): 1.4 ng/mL | Mean testosterone level on Day 42 (16+16 mg, Day 42 (5.5 at baseline)): 4.5 ng/mL | Mean time for first return of testosterone to baseline interval after the first administration (16+16 mg, SD=2.8): 6.1 days | Mean time to second return of testosterone to baseline interval (after the second administration) (16+16 mg, SD=33.9): 19.5 days | Mean minimal value of testosterone (Cnadir) [1]: 1.4 ng/mL | Mean time-point (tnadir) to Cnadir of testosterone [1]: 1.1 days | Mean minimal value of testosterone (Cnadir) [2]: 2.0 ng/mL | Mean time-point (tnadir) to Cnadir of testosterone [2]: 4.0 days | Mean area of testosterone concentrations below 0.5 ng/mL (16+16 mg, range 0.0-0.0): 0.0 ng·days/mL | Number of patients with testosterone below the castration level 0.5 ng/mL at one or more time-points (16+16 mg): 2 patients | Percentage of patients with testosterone below the castration level 0.5 ng/mL at one or more time-points (16+16 mg): 15% | Greatest change from baseline in mean testosterone (32+32 mg): -4.1 ng/mL | Lowest mean testosterone level (32+32 mg, Day 17 (after second administration), SD 0.3): 0.4 ng/mL | Subjects that had not regained testosterone levels >0.5 ng/mL at Day 42 (32+32 mg, Day 42): Three | Mean testosterone level on Day 42 (32+32 mg, Day 42 (4.5 at baseline)): 2.7 ng/mL | Mean time for first return of testosterone to baseline interval after the first administration (32+32 mg, SD=2.6): 9.1 days | Mean time to second return of testosterone to baseline interval (after the second administration) (32+32 mg, SD=83.5): 64.2 days | Mean minimal value of testosterone (Cnadir) [3]: 0.6 ng/mL | Mean time-point (tnadir) to Cnadir of testosterone [3]: 3.2 days | Mean minimal value of testosterone (Cnadir) [4]: 0.4 ng/mL | Mean time-point (tnadir) to Cnadir of testosterone [4]: 4.3 days | Mean area of testosterone concentrations below 0.5 ng/mL (32+32 mg, range 0.0-15.3): 2.8 ng·days/mL | Number of patients with testosterone below the castration level 0.5 ng/mL at one or more time-points (32+32 mg): 9 patients | Percentage of patients with testosterone below the castration level 0.5 ng/mL at one or more time-points (32+32 mg): 75% | Number of patients castrated (testosterone below 0.5 ng/mL), for generally 2-4 days [5]: 8 patients | Percentage of patients castrated (testosterone below 0.5 ng/mL), for generally 2-4 days [5]: 33% | Larger area below and longer time to return to the testosterone baseline interval (groups given a total of 64 mg compared to the total dose 32 mg): more than 2 fold
